Results taken from patent US5141627A, “Chelators whose affinity for calcium ion is increased by illumination” (The Regents of the University of California, priority 1989, dated 1992).
Entries after “also recorded” stand apart in the source; their conditions may differ.

Experiments:
REF52 fibroblast cell = experiment: Intracellular free Ca2+ in REF52 fibroblasts on vasopressin stimulation and UV photolysis (fluo-3); type: cell-based, Fisher rat; settings: for effect of UV photolysis of intracellular chelator on [Ca2+]i (in words): 1 s UV after 50 nM [arg8]-vasopressin
Source text: The tetraacetoxymethyl esters of diazo-2 and diazo-3 were synthesized. The acetoxymethyl (AM) groups mask the negative charges on the carboxylate functions, so the AM ester of diazo-2 and diazo-3 can easily diffuse across the cell membrane, which is largely impermeable to ions. Once inside the cell, non-specific esterases in the cell hydrolytically cleave the AM esters and restore diazo-2 and diazo-3 to their tetracarboxylate forms, which being polyanions, are trapped within the cell. […] Prior to the start of data acquisition (t=0), the REF52 fibroblast cell was loaded with diazo-2 and fluo-3. […] Its fluorescence quantum yield is enhanced about 40-fold by Ca^2+ binding, which occurs with a Kd of 400 nM.
Prior to the start of data acquisition, the REF52 fibroblast cell was loaded with fluo-3 and diazo-2 by incubation for 30 min at 25° C. DME medium containing 1 μM diazo-2/AM and 10 μM fluo-3/AM. Acquisition of fluo-3 fluorescence intensity images was begun at time 0. The fluorescence intensity data was converted to intracellular Ca^2+ concentrations using a calibration procedure previously described. The event markers correspond to 1) stimulating the cell with 50 nM [arg^8 ]-vasopressin,and 2) flashing the cell for 1 s with UV light.
The experimental conditions were the same as in (A) except that the cell wa loaded with fluo-3 and diazo-3 (instead of diazo-2) by incubation for 90 min at 25° C. in DME medium containing 10 μm fluo-3/AM and […] diazo-3/AM. The event markers correspond to 1) stimulating the cell with 50 nM [arg^8 ]-vasopressin, and 2) flashing the cell for 1 s of UV light.
For preliminary biological tests, Fisher rat embryo fibroblast of the REF52 cell line were cultured as described by J. P. Y. Kao, et al. (1989).
For testing diazo-2, REF52 cells were incubated for 30 min at 25° C. in Dulbecco's modified Eagle's medium, buffered at pH 7.4 with 20 mM HEPES and containing 1 μM diazo-2/AM and 10 μM fluo-3/AM. For control experiments using diazo-3, the cells were incubated for 90 min at 25° C. in DMEM, buffered to pH 7.4 with 20 mM HEPES and containing 1 μM diazo-3/AM and […] fluo-3/AM. After loading, the cells were gently washed, transferred into Hanks' Balanced Salt Solution containing 0.2 mM sulfinpyrazone to inhibit non-specific organic anion transport (see Tsien, 1989), and mounted on a 25° C. microscope stage for experimentation.
Flash photolysis of trapped cellular diazo-2 and the concomitant monitoring of intracellular free Ca^2+ concentration with fluo-3, a fluorescent Ca^2+ indicator, were performed using methodology and instrumentation described in A. Minta, et al (1989) and J. P. Y. Kao, et al. (1989). Briefly, output form a Xe arc lamp was passed through a monochromator to yield the 490 nm light used to probe the fluo-3 trapped intracellularly. The fluo-3 fluorescence images of cells were recorded using a SIT TV camera. Images were stored on a high-resolution monochrome laser disc recorder (Panasonic TQ-2028) for delayed processing. Photolyses were performed by briefly moving a chopper mirror to send broad-band UV from an XBO 75 W xenon arc lamp and UG-2 filter into the microscope instead of 490 nm fluo-3 excitation. The microscope objective (Nikon UV-CF, 40X) was chosen for its high UV transmission and numerical aperture (1.3). […] The same computer was used to analyze the fluorescence images acquired during the experiment.

[1] = Quantum efficiency and completion of photolysis; type: physicochemical; settings: for Φ quantum efficiency of photolysis, free: zero [Ca2+]
Protocol: Spectra were obtained after 0, 2, 5, 9, 16, 28, 46, 80, 150, 285, 505 and 903 sec of 365-nm illumination at 7.82×10^- 9 einsteins cm^-2 s^-1 from Spectroline lamp. For clarity only the 0-, 9-, 28-, 46-, 80-, 150-, and 505-s spectra are reproduced herein. The 505- and 903-s spectra were identical, confirming completion of photolysis after those times. Solutions were at 22±2° C.
The method was as described in FIG. 1B except that the EGTA was replaced by 2 mM CaCl2, and spectra were measured after 0-, 50-, 100-, 203-, 412-, 840-, 1730-, 4080-, and 8000-s illumination. The last two spectra were identical, confirming completion. For clarity the 50- and 8000-s spectra are omitted.
The photolysis quantum efficiencies of diazo chelators were determined by alternately irradiating a buffered solution of the substrate with a known intensity of longwave UV light, and measuring the absorbance spectrum, in apparatus described by S. R. Adams, et al. (1988), supra.

[2] = Absorbance spectra of free and Ca2+-bound chelators; type: physicochemical
Protocol: The titration was done at 22° C. with 10 mL of 100 mM KCl, 10 mM K-MOPS, 10 mM K2 H.HEEDTA, and 14 […] diazo-2 as starting materials, adjusting the pH to 7.24, recording the spectrum, and then discarding 1.0 mL of this solution and replacing with 1.0 mL of 100 mM KCl, 10 mM K.MOPS, 10 mM KCa.HEEDTA, 14 μM diazo-2, readjusting the pH to 7.24, and recording the spectra, which was then in 9 mM K2H.HEEDTA. Subsequent iterations to reach n mM KCa.HEEDTA, (10-n) mM HEEDTA, n=2-10, were done by discarding 10.0/(11-n) mL and replacing with equal volumes of the 10mM KCa.HEEDTA, 14 μM diazo-2 stock. After n=10 had been reached to give free Ca^2+ between 10^-5 and 10^-4 M, addition of 1 mM CaCl2 had no further effect on the spectrum. For clarity only six spectra are including in the figure, n=0, 2, 4, 6, 8, and 10. Each spectrum is labeled with the calculated free [Ca^2+ ] imposed by the HEEDTA buffer, assuming a log effective stability constant of 5.55 at pH 7.24.
The phenylacetate was produced by irradiating a 30 μM solution of diazo-2 in 100 mM KCl, 10 mM Tris.HCl, 10 mM K2 H.HEEDTA, pH 8.40, with Spectroline lamp at 365 nm to completion. The titration was then performed as in A but the pH was maintained at 8.40, at which the calculated log effective stability is constant for HEEDTA was 6.60.
Proton magnetic resonance spectra (^1 H NMR) were recorded on a Varian EM-390 90-MHz spectrometer in CDCl3 unless otherwise noted, and the chemical shifts are given in δ values relative to tetramethylsilane. Ultraviolet (UV) absorbance spectra were recorded on a Cary 210 or a Perkin-Elmer Lambda Array 3840 spectrophotometer at 20°±2° C. Melting points are in Centigrade and are uncorrected. Elemental analyses were performed by the Microanalytical Laboratory in the Department of Chemistry, University of California, Berkeley, Calif.

Row | SMILES | effect of UV photolysis of intracellular chelator on [Ca2+]i (in words) (REF52 fibroblast cell) | [Ca2+]i immediately after photolysis (REF52 fibroblast cell; after 1 s UV, cell stimulated with 50 nM [arg8]-vasopressin, loaded with diazo-2/AM) | quantum yield of photolysis ([1]; 365 nm) | illumination time to completion of photolysis, free ([1]; 365 nm, 7.82×10^-9 einsteins cm^-2 s^-1, absence of Ca2+, 8 μM) [s] | Φ quantum efficiency of photolysis, +Ca2+ ([1]; saturating [Ca2+]) | Φ quantum efficiency of photolysis, free [1] | εmax, +Ca2+ ([2]; +Ca2+, at λmax) | λmax, +Ca2+ ([2]; +Ca2+, dominant peak at longest wavelength) [nm] | εmax, free ([2]; free (zero Ca2+), at λmax) | shift of absorbance to shorter wavelengths on binding Ca2+ ([2]; on binding Ca2+) [nm] | λmax, free ([2]; free (zero Ca2+), dominant peak at longest wavelength) [nm]
1 | Cc1ccc(N(CC(=O)O)CC(=O)O)c(OCCOc2cc(C(=O)C=[N+]=[N-])ccc2N(CC(=O)O)CC(=O)O)c1 [diazo-2, 1-(2-bis(carboxymethyl)amino-5-methyl) phenoxy-2-(2-bis(carboxymethyl)amino-5-(diazoacetyl)phenoxy) ethane] | dropped precipitously | about 50 nM | 0.030 | ≤ 505 | 0.030 | 0.057 | 20.2 10^-3, M^-1 cm^-1 | 320 | 22.2 10^-3, M^-1 cm^-1 | 50 | 
2 | COc1cc(C(=O)C=[N+]=[N-])ccc1N(CC(=O)O)CC(=O)O [diazo-3, 2-methoxy-4-(diazoacetyl)aniline-N, N-diacetic acid] | did not have any effect on the intracellular Ca^2+ concentration; also recorded: no detectable effect on Ca^2+ hemeostasis |  |  |  |  | 0.048 |  |  | 22.8 10^-3, M^-1 cm^-1 |  | 374
